According to patent US20260028354A1, “TETRAHYDRONAPHTHALENE DERIVATIVES AS ESTROGEN RECEPTOR DEGRADERS” (REGENT OF THE UNIVERSITY OF MICHIGAN, priority 2022, published 2026):

assay: Western blot analysis for "B" compounds; type: cell-based; conditions: read-out: Traditional Western Degradation Potency (DC50)
Summary of the method: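 Compound-treated cells lysed in RIPA buffer with protease inhibitors; equal protein (BCA) run on 10% SDS-PAGE, transferred to PVDF and probed with target antibodies. Band intensities quantified by densitometry and normalized to GAPDH.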

| Structure (SMILES) | DC50 [nM] |
| --- | --- |
| O=C1CCC(N2C(=O)c3cc4c(cc3C2=O)CN(C2CCC(NC3CCN(c5ccc([C@@H]6c7ccc(O)cc7CC[C@@H]6c6ccccc6)cc5)CC3)CC2)C4)C(=O)N1 (stereo partly drawn) [Compound B84, 2-(2,6-dioxopiperidin-3-yl)-6-(4-((1-(4-((1R,2S)-6-hydroxy-2-phenyl-1,2,3,4-tetrahydronaphthalen-1-yl)phenyl)piperidin-4-yl)amino)cyclohexyl)-6,7-dihydropyrrolo[3,4-f]isoindole-1,3(2H,5H)-dione] | > 100 |
| CN(C1CCC(N2Cc3cc4c(cc3C2)C(=O)N(C2CCC(=O)NC2=O)C4=O)CC1)C1CCN(c2ccc([C@@H]3c4ccc(O)cc4CC[C@@H]3c3ccccc3)cc2)CC1 (stereo partly drawn) [Compound B88, 2-(2,6-dioxopiperidin-3-yl)-6-(4-((1-(4-((1R,2S)-6-hydroxy-2-phenyl-1,2,3,4-tetrahydronaphthalen-1-yl)phenyl)piperidin-4-yl)(methyl)amino)cyclohexyl)-6,7-dihydropyrrolo[3,4-f]isoindole-1,3(2H,5H)-dione] | > 100 |
| O=C1CCC(N2C(=O)c3cc4c(cc3C2=O)CN(c2ncc(CN3CC(Oc5ccc([C@@H]6c7ccc(O)cc7CC[C@@H]6c6ccccc6)cc5)C3)cn2)C4)C(=O)N1 (stereo partly drawn) [Compound B89, 2-(2,6-dioxopiperidin-3-yl)-6-(5-((3-(4-((1R,2S)-6-hydroxy-2-phenyl-1,2,3,4-tetrahydronaphthalen-1-yl)phenoxy)azetidin-1-yl)methyl)pyrimidin-2-yl)-6,7-dihydropyrrolo[3,4-f]isoindole-1,3(2H,5H)-dione] | > 100 |
| O=C1CCC(N2C(=O)c3cc4c(cc3C2=O)CN(c2ccc(CN3CC(Oc5ccc([C@@H]6c7ccc(O)cc7CC[C@@H]6c6ccccc6)cc5)C3)cn2)C4)C(=O)N1 (stereo partly drawn) [Compound B90, 2-(2,6-dioxopiperidin-3-yl)-6-(5-((3-(4-((1R,2S)-6-hydroxy-2-phenyl-1,2,3,4-tetrahydronaphthalen-1-yl)phenoxy)azetidin-1-yl)methyl)pyridin-2-yl)-6,7-dihydropyrrolo[3,4-f]isoindole-1,3(2H,5H)-dione] | > 100 |
| O=C1CCC(N2C(=O)c3cc4c(cc3C2=O)CN(Cc2ccc(N3CC(Oc5ccc([C@@H]6c7ccc(O)cc7CC[C@@H]6c6ccccc6)cc5)C3)nc2)C4)C(=O)N1 (stereo partly drawn) [Compound B91, 2-(2,6-dioxopiperidin-3-yl)-6-((6-(3-(4-((1R,2S)-6-hydroxy-2-phenyl-1,2,3,4-tetrahydronaphthalen-1-yl)phenoxy)azetidin-1-yl)pyridin-3-yl)methyl)-6,7-dihydropyrrolo[3,4-f]isoindole-1,3(2H,5H)-dione] | 10 to 100 |
| O=C1CCC(N2C(=O)c3cc4c(cc3C2=O)CN(Cc2cnc(N3CC(Oc5ccc([C@@H]6c7ccc(O)cc7CC[C@@H]6c6ccccc6)cc5)C3)nc2)C4)C(=O)N1 (stereo partly drawn) [Compound B92, 2-(2,6-dioxopiperidin-3-yl)-6-((2-(3-(4-((1R,2S)-6-hydroxy-2-phenyl-1,2,3,4-tetrahydronaphthalen-1-yl)phenoxy)azetidin-1-yl)pyrimidin-5-yl)methyl)-6,7-dihydropyrrolo[3,4-f]isoindole-1,3(2H,5H)-dione] | > 100 |
| O=C1CCC(N2C(=O)c3cc4c(cc3C2=O)CN(CC(=O)NC2CCN(c3ccc([C@@H]5c6ccc(O)cc6CC[C@@H]5c5ccccc5)cc3)CC2)C4)C(=O)N1 (stereo partly drawn) [Compound B93, 2-(6-(2,6-dioxopiperidin-3-yl)-5,7-dioxo-3,5,6,7-tetrahydropyrrolo[3,4-f]isoindol-2(1H)-yl)-N-(1-(4-((1R,2S)-6-hydroxy-2-phenyl-1,2,3,4-tetrahydronaphthalen-1-yl)phenyl)piperidin-4-yl)acetamide] | > 100 |
| O=C1CCC(N2C(=O)c3cc4c(cc3C2=O)CN(CCC(=O)NC2CCN(c3ccc([C@@H]5c6ccc(O)cc6CC[C@@H]5c5ccccc5)cc3)CC2)C4)C(=O)N1 (stereo partly drawn) [Compound B94, 3-(6-(2,6-dioxopiperidin-3-yl)-5,7-dioxo-3,5,6,7-tetrahydropyrrolo[3,4-f]isoindol-2(1H)-yl)-N-(1-(4-((1R,2S)-6-hydroxy-2-phenyl-1,2,3,4-tetrahydronaphthalen-1-yl)phenyl)piperidin-4-yl)propenamide] | > 100 |
| CN(CC1CN(c2ccc([C@@H]3c4ccc(O)cc4CC[C@@H]3c3ccccc3)cc2)C1)C1CCC(N2Cc3cc4c(cc3C2)C(=O)N(C2CCC(=O)NC2=O)C4=O)CC1 (stereo partly drawn) [Compound B95, 2-(2,6-dioxopiperidin-3-yl)-6-(4-(((1-(4-((1R,2S)-6-hydroxy-2-phenyl-1,2,3,4-tetrahydronaphthalen-1-yl)phenyl)azetidin-3-yl)methyl)(methyl)amino)cyclohexyl)-6,7-dihydropyrrolo[3,4-f]isoindole-1,3(2H,5H)-dione] | > 100 |
| O=C1CCC(N2C(=O)c3cc4c(cc3C2=O)CN([C@H]2CC[C@@H](NC3CCN(c5ccc([C@@H]6c7ccc(O)cc7CC[C@@H]6c6ccccc6)cc5)CC3)CC2)C4)C(=O)N1 (stereo partly drawn) [Compound B96, 2-(2,6-dioxopiperidin-3-yl)-6-((1S,4s)-4-((1-(4-((1R,2S)-6-hydroxy-2-phenyl-1,2,3,4-tetrahydronaphthalen-1-yl)phenyl)piperidin-4-yl)amino)cyclohexyl)-6,7-dihydropyrrolo[3,4-f]isoindole-1,3(2H,5H)-dione] | > 100 |
| O=C1CCC(N2C(=O)c3cc4c(cc3C2=O)CN([C@H]2CC[C@H](NC3CCN(c5ccc([C@@H]6c7ccc(O)cc7CC[C@@H]6c6ccccc6)cc5)CC3)CC2)C4)C(=O)N1 (stereo partly drawn) [Compound B97, 2-(2,6-dioxopiperidin-3-yl)-6-((1R,4r)-4-((1-(4-((1R,2S)-6-hydroxy-2-phenyl-1,2,3,4-tetrahydronaphthalen-1-yl)phenyl)piperidin-4-yl)amino)cyclohexyl)-6,7-dihydropyrrolo[3,4-f]isoindole-1,3(2H,5H)-dione] | > 100 |
| O=C1CCC(N2C(=O)c3cc4c(cc3C2=O)CN(C2CCC(C(=O)NC3CN(c5ccc([C@@H]6c7ccc(O)cc7CC[C@@H]6c6ccccc6)cc5)C3)CC2)C4)C(=O)N1 (stereo partly drawn) [Compound B98, 4-(6-(2,6-dioxopiperidin-3-yl)-5,7-dioxo-3,5,6,7-tetrahydropyrrolo[3,4-f]isoindol-2(1H)-yl)-N-(1-(4-((1R,2S)-6-hydroxy-2-phenyl-1,2,3,4-tetrahydronaphthalen-1-yl)phenyl)azetidin-3-yl)cyclohexane-1-carboxamide] | > 100 |
| O=C1CCC(N2C(=O)c3cc4c(cc3C2=O)CN(CC2CCC(NC3CN(c5ccc([C@@H]6c7ccc(O)cc7CC[C@@H]6c6ccccc6)cc5)C3)CC2)C4)C(=O)N1 (stereo partly drawn) [Compound B99, 2-(2,6-dioxopiperidin-3-yl)-6-((4-((1-(4-((1R,2S)-6-hydroxy-2-phenyl-1,2,3,4-tetrahydronaphthalen-1-yl)phenyl)azetidin-3-yl)amino)cyclohexyl)methyl)-6,7-dihydropyrrolo[3,4-f]isoindole-1,3(2H,5H)-dione] | > 100 |
| O=C1CCC(N2C(=O)c3cc4c(cc3C2=O)CN(C2CCC(CNC3CN(c5ccc([C@@H]6c7ccc(O)cc7CC[C@@H]6c6ccccc6)cc5)C3)CC2)C4)C(=O)N1 (stereo partly drawn) [Compound B100, 2-(2,6-dioxopiperidin-3-yl)-6-(4-(((1-(4-((1R,2S)-6-hydroxy-2-phenyl-1,2,3,4-tetrahydronaphthalen-1-yl)phenyl)azetidin-3-yl)amino)methyl)cyclohexyl)-6,7-dihydropyrrolo[3,4-f]isoindole-1,3(2H,5H)-dione] | > 100 |
| O=C1CCC(N2C(=O)c3cc4c(cc3C2=O)CN(C2CCC(NCC3CN(c5ccc([C@@H]6c7ccc(O)cc7CC[C@@H]6c6ccccc6)cc5)C3)CC2)C4)C(=O)N1 (stereo partly drawn) [Compound B101, 2-(2,6-dioxopiperidin-3-yl)-6-(4-(((1-(4-((1R,2S)-6-hydroxy-2-phenyl-1,2,3,4-tetrahydronaphthalen-1-yl)phenyl)azetidin-3-yl)methyl)amino)cyclohexyl)-6,7-dihydropyrrolo[3,4-f]isoindole-1,3(2H,5H)-dione] | > 100 |
| O=C1CCC(N2C(=O)c3cc4c(cc3C2=O)CN([C@H]2CC[C@@H](NC3CN(c5ccc([C@@H]6c7ccc(O)cc7CC[C@@H]6c6ccccc6)cc5)C3)CC2)C4)C(=O)N1 (stereo partly drawn) [Compound B102, 2-(2,6-dioxopiperidin-3-yl)-6-((1S,4s)-4-((1-(4-((1R,2S)-6-hydroxy-2-phenyl-1,2,3,4-tetrahydronaphthalen-1-yl)phenyl)azetidin-3-yl)amino)cyclohexyl)-6,7-dihydropyrrolo[3,4-f]isoindole-1,3(2H,5H)-dione] | > 100 |
| O=C1CCC(N2C(=O)c3cc4c(cc3C2=O)CN([C@H]2CC[C@H](NC3CN(c5ccc([C@@H]6c7ccc(O)cc7CC[C@@H]6c6ccccc6)cc5)C3)CC2)C4)C(=O)N1 (stereo partly drawn) [Compound B103, 2-(2,6-dioxopiperidin-3-yl)-6-((1R,4r)-4-((1-(4-((1R,2S)-6-hydroxy-2-phenyl-1,2,3,4-tctrahydronaphthalen-1-yl)phenyl)azetidin-3-yl)amino)cyclohexyl)-6,7-dihydropyrrolo[3,4-f]isoindole-1,3(2H,5H)-dione] | > 100 |
| O=C1CCC(N2C(=O)c3cc4c(cc3C2=O)CN(Cc2cnc(N3CC(Oc5ccc([C@@H]6c7ccc(O)cc7CC[C@@H]6c6ccccc6)cc5)C3)cn2)C4)C(=O)N1 (stereo partly drawn) [Compound B104, 2-(2,6-dioxopiperidin-3-yl)-6-((5-(3-(4-((1R,2S)-6-hydroxy-2-phenyl-1,2,3,4-tetrahydronaphthalen-1-yl)phenoxy)azetidin-1-yl)pyrazin-2-yl)methyl)-6,7-dihydropyrrolo[3,4-f]isoindole-1,3(2H,5H)-dione] | > 100 |
| O=C1CCC(N2Cc3cc4c(cc3C2=O)CN(C(=O)CN2CCC3(CC2)CCN(c2ccc([C@@H]5c6ccc(O)cc6CC[C@@H]5c5ccccc5)cc2)CC3)C4)C(=O)N1 (stereo partly drawn) [Compound B105, 3-(6-(2-(9-(4-((1R,2S)-6-hydroxy-2-phenyl-1,2,3,4-tetrahydronaphthalen-1-yl)phenyl)-3,9-diazaspiro[5.5]undecan-3-yl)acetyl)-1-oxo-3,5,6,7-tetrahydropyrrolo[3,4-f]isoindol-2(1H)-yl)piperidine-2,6-dione] | < 10 |
